According to patent publication US9115145B2, “Tocotrienol derivatives and associated methods” (FIRST TECH INTERNATIONAL LIMITED, priority 2011, dated 2015):
Like-named read-outs stand apart in the source and are kept apart here.

Key:
[1] = system: 60 human tumor cell lines; test: NCI in vitro screening against 60 human cell lines, single concentration; assay type: cell-based; conditions: 10 μM dose; negative values indicate cytotoxicity
Experimental: Compounds selected from Compounds 3-44 were provided to the National Cancer Institute for in vitro screening against 60-human cell lines for their ability to inhibit the growth of tumor cells in a full panel representing nine different organs (blood, lung, colon, CNS, skin, ovary, kidney, prostate, and breast). The compounds were tested at a single concentration of 10 μM, and the percentages of growth inhibitions over the sixty tested cell lines were determined. Compounds showing the highest activity were chosen for secondary assays using five different compound concentrations.
The human tumor cell lines of the cancer screening panel were grown in RPMI 1640 medium containing 5% fetal bovine serum and 2 mM L-glutamine. For a typical screening experiment, cells are inoculated into 96 well microtiter plates in 100 μL at plating densities ranging from 5000 to 40,000 cells/well depending on the doubling time of individual cell lines. After cell inoculation, the microtiter plates are incubated at 37° C., 5% CO2, 95% air and 100% relative humidity for 24 hours prior to addition of experimental drugs. After 24 hours, two plates of each cell line are fixed in situ with Trichloroacetic acid (“TCA”), to represent a measurement of the cell population for each cell line at the time of drug addition. Experimental drugs are solubilized in dimethyl sulfoxide at 400-fold the desired final maximum test concentration and stored frozen prior to use. At the time of drug addition, an aliquot of frozen concentrate is thawed and diluted to twice the desired final maximum test concentration with complete medium containing 50 ng/mL gentamicin. An aliquot of 100 μL of this drug dilution is added to the appropriate microtiter wells already containing 100 μL of medium, resulting in the required final drug concentrations. Following drug addition, the plates are incubated for an additional 48 h at 37° C., 5% CO2, 95% air, and 100% relative humidity. For adherent cells, the assay is terminated by the addition of cold TCA. Cells are fixed in situ by the gentle addition of 50 μL of cold 50% (w/v) TCA (final concentration, 10% TCA) and incubated for 60 min at 4° C. The supernatant is discarded, and the plates are washed five times with tap water and air dried. Sulforhodamine B (SRB) solution (100 μL) at 0.4% (w/v) in 1% acetic acid is added to each well, and plates are incubated for 10 min at room temperature. After staining, unbound dye is removed by washing five times with 1% acetic acid and the plates are air dried. Bound stain is subsequently solubilized with 10 mM trizma base, and the absorbance is read on an automated plate reader at a wavelength of 515 nm. For suspension cells, the methodology is the same except that the assay is terminated by fixing settled cells at the bottom of the wells by gently adding 50 μL of 80% TCA (final concentration, 16% TCA). FIGS. 37-74 indicate the growth inhibition effects of selected Compounds against a variety of cell lines based on the above described testing configuration. FIGS. 37-74 present the Growth percent for a given compound against the cell lines and both values and a bar chart of the difference between the mean growth percent and the growth percent which is an indication of the selectivity of the compound for that particular cell line.

[2] = system: +SA mammary epithelial cells; test: MTT assay of +SA cells (antiproliferative activity); assay type: cell-based, mouse; conditions: 24 hours treatment, read-out: IC50 antiproliferative activity against +SA mammary epithelial cells
Method in brief: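 Mouse +SA mammary adenocarcinoma cells in serum-free DMEM/F12 were grown 3 days, then treated 24 h with BSA-conjugated compounds (0–40 μM; DMSO <0.1%). Viable cell number came from MTT (570 nm) against a cell standard curve. IC50 was derived by linear regression.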

SMILES | mean percent growth across all 60 cell lines (mean 60) [1] | IC50 [2] [µM] | IC50 ([2]; Mus musculus, +SA cell) [µM]
CC(C)=CCC/C(C)=C/CC/C(C)=C/CC[C@]1(C)CCc2cc(O)c(C)c(C)c2O1 [Compound 1, γ-tocotrienol, reference compound] | inactive | 4 | 
COc1ccc(CCNCc2c(O)c(C)c(C)c3c2CC[C@@](C)(CC/C=C(\C)CC/C=C(\C)CCC=C(C)C)O3)cc1OC [Compound 30, (R)-5-((3,4-dimethoxyphenethylamino)methyl)-2,7,8-trimethyl-2-((3E,7E)-4,8,12-trimethyltrideca-3,7,11-trienyl)chroman-6-ol] | comparable to the activity of Compound 1 |  | 3.19
